Results: ChEMBL document CHEMBL5543108, “Structure-based design and synthesis of BML284 derivatives: A novel class of colchicine-site noncovalent tubulin degradation agents” (Eur J Med Chem, 2024)

Experiments:
[1] = tested on: K562; test: Antiproliferative activity against human K562 cells assessed as reduction in cell viability measured after 72 hrs; assay type: functional, cell-based; settings: K562, 72 h
[2] = tested on: A2780/Taxol; test: Antiproliferative activity against human A2780T cells assessed as reduction in cell viability measured after 72 hrs; assay type: functional, cell-based
[3] = tested on: A549/TR; test: Antiproliferative activity against paclitaxel resistant human A549T cells assessed as reduction in cell viability measured after 72 hrs; assay type: functional, cell-based
[4] = tested on: NCI/ADR-RES; test: Antiproliferative activity against human MCF7ADR cells assessed as reduction in cell viability measured after 72 hrs; assay type: functional, cell-based
[5] = Selectivity ratio of IC50 for human A2780T cells to IC50 for human A2780S
[6] = Selectivity ratio of IC50 for paclitaxel resistant human A549/Taxol cells to IC50 for human A549
[7] = tested on: A2780S; test: Induction of cell cycle arrest in human A2780S cells assessed as accumulation of cells at G0/G1 phase at 10 nM measured after 24 hrs by propidium iodide staining based analysis (reference value: 51.71%); assay type: functional
[8] = tested on: A2780S; test: Induction of cell cycle arrest in human A2780S cells assessed as accumulation of cells at G2/M phase at 100 nM measured after 24 hrs by propidium iodide staining based analysis (reference value: 18.43%); assay type: functional
[9] = tested on: A2780S; test: Induction of cell cycle arrest in human A2780S cells assessed as accumulation of cells at G2/M phase at 300 nM measured after 24 hrs by propidium iodide staining based analysis (reference value: 18.43%); assay type: functional
[10] = tested on: A2780S; test: Induction of cell cycle arrest in human A2780S cells assessed as accumulation of cells at S phase at 3 nM measured after 24 hrs by propidium iodide staining based analysis (reference value: 29.85%); assay type: functional
[11] = tested on: A2780S; test: Induction of cell cycle arrest in human A2780S cells assessed as accumulation of cells at S phase at 10 nM measured after 24 hrs by propidium iodide staining based analysis (reference value: 29.85%); assay type: functional
[12] = tested on: A2780S; test: Induction of cell cycle arrest in human A2780S cells assessed as accumulation of cells at S phase at 30 nM measured after 24 hrs by propidium iodide staining based analysis (reference value: 29.85%); assay type: functional
[13] = tested on: A2780S; test: Induction of cell cycle arrest in human A2780S cells assessed as accumulation of cells at S phase at 300 nM measured after 24 hrs by propidium iodide staining based analysis (reference value: 29.85%); assay type: functional
[14] = tested on: A2780/Taxol; test: Induction of cell cycle arrest in human A2780T cells assessed as accumulation of cells at G0/G1 phase at 100 nM measured after 24 hrs by propidium iodide staining based analysis (reference value: 46.141%); assay type: functional
[15] = tested on: A2780/Taxol; test: Induction of cell cycle arrest in human A2780T cells assessed as accumulation of cells at G0/G1 phase at 300 nM measured after 24 hrs by propidium iodide staining based analysis (reference value: 46.141%); assay type: functional
[16] = tested on: A2780/Taxol; test: Induction of cell cycle arrest in human A2780T cells assessed as accumulation of cells at G2/M phase at 10 nM measured after 24 hrs by propidium iodide staining based analysis (reference value: 24.13%); assay type: functional
[17] = tested on: A2780/Taxol; test: Induction of cell cycle arrest in human A2780T cells assessed as accumulation of cells at G2/M phase at 300 nM measured after 24 hrs by propidium iodide staining based analysis (reference value: 24.13%); assay type: functional
[18] = tested on: A2780/Taxol; test: Induction of cell cycle arrest in human A2780T cells assessed as accumulation of cells at S phase at 100 nM measured after 24 hrs by propidium iodide staining based analysis (reference value: 29.73%); assay type: functional
[19] = tested on: A2780S; test: Induction of apoptosis in human A2780S cells assessed as total number of late apoptotic cells at 30 nM measured after 48 hrs by Annexin-V-FITC and PI staining based flow cytometry analysis (reference value: 3.42%); assay type: functional
[20] = tested on: A2780S; test: Induction of apoptosis in human A2780S cells assessed as total number of late apoptotic cells at 100 nM measured after 48 hrs by Annexin-V-FITC and PI staining based flow cytometry analysis (reference value: 3.42%); assay type: functional
[21] = tested on: A2780S; test: Induction of apoptosis in human A2780S cells assessed as total number of late apoptotic cells at 300 nM measured after 48 hrs by Annexin-V-FITC and PI staining based flow cytometry analysis (reference value: 3.42%); assay type: functional
[22] = tested on: A2780/Taxol; test: Induction of apoptosis in human A2780T cells assessed as total number of late apoptotic cells at 100 nM measured after 48 hrs by Annexin-V-FITC and PI staining based flow cytometry analysis (reference value: 3.42%); assay type: functional
[23] = tested on: HUVEC; test: Antivascular activity against human HUVEC cells assessed as inhibition of capillary tube formation incubated for 24 hrs by microscopy based analysis; assay type: functional, cell-based
[24] = tested on: A2780S; test: Antitumor activity against human A2780S cells xenografted in mouse model assessed as tumor growth inhibition at 10 mg/kg, iv administered every two days for 12 days relative to control; assay type: functional; settings: 288 h, time 12 day, read-out: TGI
[25] = tested on: A2780S; test: Antitumor activity against human A2780S cells xenografted in mouse model assessed as tumor growth inhibition at 20 mg/kg, iv administered every two days for 12 days relative to control; assay type: functional; settings: 288 h, time 12 day, read-out: TGI
[26] = tested on: A2780/Taxol; test: Antitumor activity against human A2780T cells xenografted in mouse model assessed as tumor growth inhibition at 10 mg/kg, iv administered every two days for 18 days relative to control; assay type: functional; settings: 432 h, time 18 day, read-out: TGI
[27] = tested on: A2780/Taxol; test: Antitumor activity against human A2780T cells xenografted in mouse model assessed as tumor growth inhibition at 40 mg/kg, iv administered every two days for 18 days relative to control; assay type: functional; settings: 432 h, time 18 day, read-out: TGI
[28] = Clearance in male Sprague-Dawley rat at 10 mg/kg, iv; assay type: ADME, organism-based; settings: in vivo
[29] = Volume of distribution at steady state in male Sprague-Dawley rat at 10 mg/kg, iv; assay type: ADME, organism-based; settings: in vivo, read-out: Vdss
[30] = Bioavailability in male Sprague-Dawley rat at 10 mg/kg, iv; assay type: ADME, organism-based; settings: in vivo
[31] = Half life in male Sprague-Dawley rat at 10 mg/kg, po; assay type: ADME, organism-based; settings: in vivo
[32] = Clearance in male Sprague-Dawley rat at 10 mg/kg, po; assay type: ADME, organism-based; settings: in vivo
[33] = target: Tubulin (Homo sapiens) (UniProt P68371+Q9H4B7+P0DPH7+P68366+Q13509+Q71U36+P04350+Q3ZCM7+P07437+P68363+Q9BQE3+Q6PEY2+Q13885+Q9BVA1+Q9BUF5); test: Inhibition of tubulin polymerization (unknown origin) preincubated for 5 mins with compound followed by GTP addition and measured upto 40 mins; assay type: protein-complex assay; settings: dose 5-10 µM, time <= 45.0 min
[34] = target: Tubulin beta (Homo sapiens) (UniProt P68371+Q9H4B7+Q13509+P04350+Q3ZCM7+P07437+Q13885+Q9BVA1+Q9BUF5+A6NNZ2); test: Binding affinity to beta-tubulin colchicine binding site in human HeLa cells assessed as inhibition of EBI-beta-tubulin adduct band formation by EBI competition based Western blot analysis; assay type: cell-based; settings: dose 0.2-25 µM
[35] = tested on: HCT-116; test: cells; settings: Homo sapiens, HCT-116, 72 h
Description: Antiproliferative activity against human HCT-116 cells assessed as reduction in cell viability measured after 72 hrs

[36] = tested on: MCF7; test: cells; settings: Homo sapiens, MCF7, 72 h
Description: Antiproliferative activity against human MCF7 cells assessed as reduction in cell viability measured after 72 hrs

SMILES: COc1cccc(-c2cc(NCc3ccc4[nH]ccc4c3)nc(N)n2)c1
- IC50 [1]: 30 nM
- IC50 [2]: 16 nM
- IC50 [3]: 37 nM
- IC50 [4]: 32 nM
- Ratio IC50 [5]: 0.89
- Ratio IC50 [6]: 1.1
- Activity [7]: 48.57%
- Activity [8]: 42.46%
- Activity [9]: 82.11%
- Activity [10]: 29.35%
- Activity [11]: 29.27%
- Activity [12]: 28.02%
- Activity [13]: 16.35%
- Activity [14]: 7.72%
- Activity [15]: 4.64%
- Activity [16]: 20.61%
- Activity [17]: 83.98%
- Activity [18]: 9.12%
- Activity [19]: 5.29%
- Activity [20]: 14.43%
- Activity [21]: 15.57%
- Activity [22]: 14.43%
- IC50 [23]: 623 nM
- inhibition in vivo at 10 mg/kg [24]: 45.3%
- inhibition in vivo at 20 mg/kg [25]: 63.6%
- inhibition in vivo at 10 mg/kg [26]: 52.2%
- inhibition in vivo at 40 mg/kg [27]: 82%
- clearance [28]: 42.5 mL/min/kg
- Vd [29]: 7.43 L/kg
- bioavailability [30]: 10.5%
- half-life [31]: 5.94 h
- CL/F [32]: 314 mL/min/kg
- inhibition [33]: Dose-Dependent Effect
- Activity [34]: Dose-Dependent Effect
- IC50 [35]: 30 nM
- IC50 [36]: 20 nM
